Results: BindingDB's records for doi:10.1021/jm970141k (University of North Texas, 1997)

Test: In vitro inhibition of Acetylcholinesterase Activity in octopus brain

**Q.** With `CCCCCSC(=O)OCC[N+](C)(C)C` [Trimethyl-(2-pentylsulfanylcarbonyloxy-ethyl)-ammonium; chloride] as the compound, how does the Ki read?
**A.** 2000 nM
